Experiment [1] concerns TGFβ signaling in NIH3T3-E1 cells. Nature of the experiment: TGFβ target gene expression (Q-RT-PCR) in NIH3T3 cells. Format: cell-based, mouse. The note with it: NIH3T3 cells, TGFβ 20 ng/mL. The protocol: Total RNA was extracted with the RNeasy Plus Mini Kit from Qiagen (Hilden, Germany) according to the manufacturer’s instructions. One microgram of RNA was reverse-transcribed using an iScript Reverse Transcription Supermix from Bio-Rad Laboratories (Hercules, CA, USA) to make single-stranded cDNA. The cDNAs were then mixed with Qi SYBR Green Supermix (Bio-Rad) for quantitative RT-PCR assay using a Bio-Rad I-cycler IQ quantitative thermocycler. All PCR samples were prepared in triplicate wells in a 96-well plate. After 40 cycles of PCR, melt curves were examined in order to ensure primer specificity. Fold changes in gene expression were calculated using the ΔΔCt method. Primers used for mouse were as follows: Oaz1 (5′-CCACTGCTTCGCCAGAGAG-3′) and (5′-CCCGGACCCAGGTTACTA-3′), Gli1 (5′- […]-3′ and 5′- GCT GATCCAGCCTAAGGTTCTC-3′), Ptch1 (5′-CCATCGGCGACAAGAACC-3′ and 5′-[…]-3′), Thbs1 (5′-[…]-3′ and 5′-CGGGGATCAGGTTGGCATT-3′), Cryab (5′-[…]-3′ and 5′-[…]-3′), Egr2 (5′-[…]-3′ and 5′-[…]-3′), CTGF (5′-GGGCCTCTTCTGCGATTTC-3′ and 5′-[…]-3′).
Figure 4 Inhibition of ligand-induced Hedgehog and TGFβ signaling in mouse fibroblast cells. NIH3T3 cells were pretreated for 2 h with Oxy210 or various inhibitors as indicated in DMEM containing 5% FBS. Next, cells were treated with CAPAN-1 conditioned medium (CM) in the absence or presence of oxysterols or inhibitors. After 72 h, RNA was extracted and analyzed by Q-RT-PCR for the expression of Hh target genes Gli1 and Ptch1 and normalized to Oaz1 expression (a,b). (c,e) NIH3T3 cells were treated in DMEM containing 0.1% BCS overnight and then pretreated for 2 h with the inhibitors as indicated in DMEM containing 0.1%BCS. The cells were then treated with TGFβ (20ng/mL) in the absence or presence of the compounds. After 48 h, RNA was extracted and analyzed by Q-RT-PCR for the expression of TGFβ target genes as indicated and normalized to Oaz1 expression. (d) NIH3T3 cells cultured in 24 well-plates were transfected with a Smad response element reporter (SBE-Luciferase) plasmid and a pTK-Renilla-Luciferase plasmid. 6 hrs after transfection, cells were treated with the test agents as indicated for 48 hrs. Luciferase activity was measured and normalized to the Renilla luciferase activity. Data from a representative experiment are reported as the mean of triplicate determinations ± SD (** p < 0.01 vs. CM (a,b) or TGFβ (c,d and e) treated cells; ## p < 0.01 vs. control).

Experiment [2] deals with phosphorylation of Smad2 and Smad3 in A549 cells. Nature of the experiment: Western blot of TGFβ-induced Smad2/Smad3 phosphorylation. The class given is cell-based, human. The note with it: 10 μM pretreatment 3 h, TGFβ 4 ng/mL. The method, then: A549 cells were pretreated with DMSO, Oxy186 (10 μM) or Oxy210 (10 μM) for 3 h, then treated with TGFβ (4 ng/mL) for the indicated times. After treatment, the cells were harvested in Triton lysis buffer (1% Triton X-100, 25 mM Tris-HCl, pH 7.4, 300 mM NaCl with protease and phosphatase inhibitors), and the supernatant was collected as cell lysates after centrifugation (15,000× g, 25 min at 4 °C). A Bradford assay was used to measure the protein concentration. […] proteins of each sample were loaded into the wells of an 8% SDS-PAGE gel, and the proteins were transferred to a PVDF membrane after SDS-PAGE gel separation. […] Densitometry readings were performed with ImageJ software (Version 1.52a, NIH, Bethesda, MD, USA, see Supplementary Materials).
Figure 11 Inhibition of TGFβ-induced Smad2/3 phosphorylation and transcriptional activity. […] Luciferase activity was measured and normalized to the Renilla luciferase activity. […]

As to `C[C@]12CC[C@H]3[C@@H](CC=C4C[C@@H](O)CC[C@@]43C)[C@@H]1CC[C@@H]2[C@](C)(O)CCc1cccnc1` [Oxy210, (3S,8S,9S,10R,13S,14S,17S)-17-((R)-2-hydroxy-4-(pyridin-3-yl)butan-2-yl)-10,13-dimethyl-2,3,4,7,8,9,10,11,12,13,14,15,16,17-tetradecahydro-1H-cyclopenta[a]phenanthren-3-ol], the “expression of TGFβ target genes CTGF, Egr2, Thbs1 and Cryab” value in experiment [1] (48 h) is recorded as “strongly inhibited”. Further, the “expression of CTGF induced by TGFβ” value in experiment [1] (48 h (Figure 4e)) is on record as “robustly inhibited”. Besides, in experiment [2], the “TGFβ-induced phosphorylation of Smad2 and Smad3” value is “robustly inhibited”.

For the origin of these results see article PMC6829886, “Inhibition of Non-Small Cell Lung Cancer Cells by Oxy210, an Oxysterol-Derivative that Antagonizes TGFβ and Hedgehog Signaling” (Cells, 2019).
